21 compounds from PubChem BioAssay (NCI) can be followed below.

Several values for one entry are separate records, joined by “and”; a condition that tells them apart may be missing. Equal entries are not always repeated.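 Cultured in 96-well plates, cells were exposed to test compound for 48 hours across five concentrations. Abbreviation: GI50, concentration required for 50% inhibition of growth. Definition used: TGI = concentration required for complete inhibition of growth.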 A value given as a limit tells only on which side of the number the result lay.

Test in all cases: NCI anticancer screen, dose series, 48 h
For assay [1], the system named is SK-OV-3 ovarian.
In assay [2] the test system is SN12C renal.
Assay [3] concerns NCI-H522 lung.
Assay [4] relates to HCC-2998 colon.
Assay [5] concerns SF-539 CNS.
The test system of assay [6] is HOP-62 NSCLC.
Assay [7] relates to KM12 colon.
Assay [8] relates to CAKI-1 renal.
For assay [9], the system named is NCI-H460 lung.
Assay [10] relates to MOLT-4 leukemia.

Turning to `CN(C)CCNc1ccc2ncn3c4ccc(O)cc4c(=O)c1c23`, the TGI worked out at 17 µM in assay [1]; 13.3 µM in assay [2]; 5.68 µM in assay [3]; 12.7 µM in assay [4]; 14.7 µM in assay [5]; 5.35 µM in assay [6]. Also, the TGI was over 35.7 µM in assay [7], 4.83 µM in [8], 6.5 µM in [9] and 10.5 µM in [10].
Turning to `NC(=O)CC1OC(=O)Cc2cc3c(c(O)c21)C(=O)c1c(O)cccc1C3=O` (stereo not given), the TGI in assay [1], in [2], in [3], in [4], in assay [5] and in assay [8] was over 100 µM throughout. The TGI in [9] and in assay [10] was over 100 µM throughout.
Regarding `O=C1Nc2c(Cl)cc(Cl)cc2/C1=N/N=C/c1ccco1`, the TGI was over 100 µM in assay [1]; 82.1 µM in assay [2]; over 100 µM in [4]; over 100 µM in assay [5]; over 100 µM in assay [6]; over 100 µM in assay [7]. Also, the TGI in assay [8] was 72.8 µM; in assay [9] it was over 100 µM; in assay [10], over 100 µM.
With `CC1SC(c2ccccc2Cl)N(NC(=O)C(O)c2ccccc2)C1=O` (stereo not given), the GI50 is over 100 µM in assay [2]; 54.4 µM in assay [3]; over 100 µM in [4]; over 100 µM in assay [5]; over 100 µM in assay [6]; over 100 µM in assay [7]. Moreover, the GI50 in assay [8] was 44.6 µM; in assay [9] it was 66.9 µM; in [10] it was 50.4 µM. Further, the TGI in assay [2], in assay [3], in assay [4], in assay [5], in [6] and in [7] was over 100 µM each time. The TGI in [8], in [9] and in assay [10] was over 100 µM each time.
For the compound `CSc1cc([C@@H]2C[C@H]2c2ccc(Cl)cc2)on1`, the GI50 in assay [1] was 50.6 µM; in assay [2], 5.17 µM; in assay [3] it was 6.91 µM; in assay [4] it was 1.25 µM; in [6] it was 13.8 µM; in assay [7], 14.5 µM. Moreover, the GI50 in [8] is 12.5 µM; in assay [9] it was 19 µM; in assay [10] it was 28.6 µM. The TGI was over 100 µM in assay [1]; 20.5 µM in assay [2]; 45.9 µM in assay [3]; 15 µM in assay [4]; 41.8 µM in assay [6]; 30.3 µM in assay [7]. For the same compound, the TGI in [8] is 35.7 µM; in [9] it was 43 µM; in assay [10], over 100 µM.
`CC1=C(C#N)C23C(=O)N(c4ccccc4)C(=O)C2=C(O)C=CC3(O)N1Cc1ccc(Cl)cc1Cl` (stereo not given): the GI50 was 11.2 µM in assay [1]; 2.4 µM in [2]; 1.81 µM in assay [4]; 2.11 µM in [5]; 4.31 µM in [6]; 3.27 µM in [7]. The GI50 in [8] is 2.94 µM; in assay [9], 3.09 µM; in assay [10], 2.92 µM. In addition, the TGI in assay [1] was 23.2 µM; in assay [2] it was 6.83 µM; in assay [4], 3.82 µM; in assay [5], 4.9 µM; in [6] it was 15.7 µM; in assay [7] it was 12 µM. For the same compound, the values for the TGI in assay [8], in [9] and in [10] were 12.1 µM, 12.3 µM and 7.55 µM, respectively.
For `Nc1nc(=O)n(C2CCC(CO)O2)cc1F` (stereo not given), the TGI in assay [1], in [2], in [3], in assay [4], in assay [6] and in assay [7] was over 100 µM throughout. Further, the TGI in assay [8], in [9] and in [10] was over 100 µM each time.
For the compound `CSC(=NC(=O)c1ccccc1Cl)SCCSC(=NC(=O)c1ccccc1Cl)SC`, the TGI in [2], in assay [3], in [4], in assay [5], in assay [6] and in assay [7] was over 100 µM in each case. The TGI in assay [8], in assay [9] and in assay [10] was over 100 µM throughout.
`COc1ccc2c(c1)c(-c1nc(-c3cn(C)c4ccncc34)cs1)cn2C`: the GI50 in [1] was 2.52 µM; in assay [2], 1.85 µM; in assay [3] it was 1.77 µM; in assay [4] it was 1.89 µM; in [5], 1.77 µM; in assay [6], 1.9 µM. The GI50 is 1.84 µM in assay [7], 1.8 µM in [8] and 1.94 µM in assay [9]. Besides, the TGI in assay [1] was found to be 5.12 µM; in assay [2], 3.49 µM; in assay [3], 3.26 µM; in assay [4], 3.38 µM; in [5], 3.25 µM; in assay [6] it was 3.62 µM. Also, the TGI in assay [7] is 3.41 µM; in [8], 3.26 µM; in assay [9], 3.68 µM.
For the compound `O=C(c1c(F)c(F)c(F)c(F)c1F)c1c(F)c(F)c(F)c(F)c1F`, the TGI in [1] turned out to be 5.57 µM; in [3], 0.392 µM; in assay [4], 3.47 µM; in [5], 2.69 µM; in assay [6] it was 3.49 µM; in [7] it was 2.04 µM. The TGI in [8] came out at 1.69 µM; in assay [9], 5.24 µM; in assay [10] it was 0.764 µM.
For the compound `COc1ccc2c(c1)CCC1C2CC[C@@]2(C)C1CC[C@@H]2NC(=O)Cc1ccc(O)c(O)c1` (stereo not given in full), the GI50 in [1] is 16.7 µM; in [2], 5.79 µM; in assay [3], 1.9 µM; in assay [4] it was 13.4 µM; in assay [5], 4.84 µM; in [7], 5.47 µM. The figures for the GI50 in assay [8], in assay [9] and in assay [10] were 8.53 µM, 12.3 µM and 2.76 µM, respectively. The TGI in assay [1] came to 33.4 µM; in [2], 19.6 µM; in assay [3], 4.25 µM; in assay [4], 28.2 µM; in assay [5] it was 17.3 µM; in assay [7], 21.7 µM. For the same compound, the TGI turned out to be 21.7 µM in [8], 31.9 µM in [9] and 83 µM in assay [10].
On to `CN(C)c1ccc(/C=N/NC(N)=S)nc1`, for which the GI50 is 4.5 µM in [1]; 3.51 µM in assay [2]; 1.2 µM in [3]; 3.35 µM in assay [4]; 1.81 µM in [5]; 3.11 µM in assay [6]. For the same compound, the figures for the GI50 in assay [7], in assay [9] and in assay [10] were 3.49 µM, 2.89 µM and 2.92 µM, respectively. Further, the TGI in [1], in assay [2], in assay [3], in assay [4], in assay [5] and in [6] was over 100 µM each time. Besides, the TGI was over 100 µM in assay [7], 29.3 µM in assay [9] and 95.1 µM in assay [10].
Take `CC(C)(C)OC(=O)C1C(=O)NC(=O)CC1CC(OCc1ccccc1)C(OCc1ccccc1)C(COCc1ccccc1)OCc1ccccc1` (stereo not given): the GI50 in assay [2] is 95 µM and 36.4 µM; in assay [5] it was > 100 µM and 36.6 µM; in assay [6], > 100 µM and 34 µM; in assay [7] it was 39 µM and 5.26 µM; in assay [9], 32.7 µM and 12.1 µM; in [10], 14.1 µM and 3.86 µM. Besides, the TGI was over 100 µM in assay [2]; over 100 µM in assay [4]; over 100 µM in assay [5]; over 100 µM in [6]; > 100 µM and 27.2 µM in assay [7]; over 100 µM in assay [9]. The TGI in assay [10] was > 100 µM and 28.1 µM.
Turning to `O=S(=O)(N=C1C(Cl)=C(Cl)C(=NS(=O)(=O)c2ccccc2)C(Cl)=C1Cl)c1ccccc1`, the GI50 in assay [1] is 43.2 µM; in assay [2], 29.9 µM; in assay [3], 11.1 µM; in [4], 26.6 µM; in assay [5] it was 45.6 µM; in assay [6], 27.5 µM. Also, the GI50 in assay [7] was 12.2 µM; in assay [9] it was 17.4 µM; in assay [10] it was 27 µM. Moreover, the TGI in [1] was over 100 µM; in assay [2], over 100 µM; in assay [3], 29.7 µM; in [4] it was 64.6 µM; in assay [5] it was over 100 µM; in assay [6], 80.3 µM. In addition, the TGI was 25.6 µM in assay [7], 36.7 µM in [9] and over 100 µM in assay [10].
In the case of `CSC(=O)C[C@@]12O[C@@H]([C@@H](C)C3CCC4[C@@H]5C(O)CC6=CC(=O)C=C[C@]6(C)C5CC[C@@]43C)C[C@](C)(O1)C(C)(C)O2` (stereo not given in full), the TGI in assay [1] is 42.6 µM; in assay [2], 31.5 µM; in [3] it was 30 µM; in assay [4] it was 41.6 µM; in assay [5] it was 30.7 µM; in assay [6], 34.8 µM. Also, the values for the TGI in assay [7], in assay [8] and in assay [9] were 32.9 µM, 34.9 µM and 35.8 µM, respectively.
Regarding `C=C(C)[C@@H]1CC[C@]2(CO)CC[C@]3(C)[C@H](CC[C@@H]4[C@@]5(C)CCCNC(C)(C)[C@@H]5CC[C@]43C)[C@@H]12`, the GI50 in assay [1] was 1.83 µM; in [2] it was 1.62 µM; in assay [4] it was 1.51 µM; in assay [5], 1.58 µM; in [6], 1.81 µM; in assay [7], 1.73 µM. Besides, the GI50 was 1.55 µM in assay [8], 1.63 µM in assay [9] and 1.79 µM in [10]. Moreover, the TGI in assay [1] came out at 3.49 µM; in assay [2], 3.03 µM; in [4] it was 2.93 µM; in assay [5] it was 3.01 µM; in assay [6], 3.42 µM; in assay [7], 3.24 µM. Besides, the figures for the TGI in assay [8], in assay [9] and in assay [10] were 2.89 µM, 3.21 µM and 4.5 µM, respectively.
For `Cc1ccc(NCC2(/N=C/c3ccccc3)OC(CO)C(O)C2O)cc1` (stereo not given), the TGI in assay [3], in assay [4], in assay [5], in [6], in assay [7] and in assay [8] was over 100 µM in each case. Further, the TGI in assay [9] and in assay [10] was over 100 µM each time.
`C(=N\Nc1ncc(-c2cc3cc4c(cc3o2)OCO4)s1)/c1ccco1`: the GI50 is 2.97 µM in assay [2]; 0.625 µM in [3]; 3.52 µM in assay [4]; 1.58 µM in [5]; 3.04 µM in [6]; 1.85 µM in assay [7]. Further, the results for the GI50 in assay [8], in assay [9] and in [10] were 0.854 µM, 2.59 µM and 0.946 µM, respectively. The TGI in assay [2] turned out to be 12.7 µM; in assay [3] it was 2.97 µM; in assay [4] it was 12.9 µM; in [5], 3.96 µM; in assay [6], 12.6 µM; in assay [7] it was 5.14 µM. For the same compound, the results for the TGI in assay [8], in assay [9] and in [10] were 6.69 µM, 10.3 µM and 14.5 µM, respectively.
In the case of `[N-]=[N+]=NCN1C(=O)C2C3C=CC(C2C1=O)C1C2C(=O)N(CN=[N+]=[N-])C(=O)C2C31` (stereo not given), the TGI in [2] was over 100 µM; in assay [3], over 100 µM; in assay [4], 69.8 µM; in [5] it was over 100 µM; in assay [6] it was over 100 µM; in assay [7], over 100 µM. In addition, the TGI in [8] and in assay [9] was over 100 µM throughout.
Take `Cc1ccc(OCC2CO2)c(Br)c1` (stereo not given): the TGI in assay [1] is 58.5 µM; in [2] it was 45 µM; in assay [4] it was 34.8 µM; in assay [5], 29.9 µM; in assay [6], over 100 µM; in [7], over 100 µM. For the same compound, the TGI in [8] is over 100 µM; in assay [9], 66 µM; in [10], 70.4 µM.
In the case of `CCCCCCCCCCCCSC(=S)c1c(C)[nH]n(-c2ccccc2)c1=O`, the TGI is over 50 µM in assay [1]; over 50 µM in assay [2]; 21.5 µM in assay [4]; 33.9 µM in assay [5]; 15.6 µM in [6]; over 50 µM in assay [8]. In addition, the TGI in assay [10] was determined as 46.1 µM.
